Data taken from patent US10689377B2 (Mirati Therapeutics, Inc., priority 2017, dated 2020).
Counter-ions that a name gives are not always drawn.

molecular target: KRas G12C (Homo sapiens, UniProt P01116, G12C); experiment: Cellular inhibition of KRas G12C measured by Phospho-ERK in NCI-H358 cells; assay type: cell-based; settings: pERK(Thr202/Tyr204) normalized with GAPDH, NCI-H358 cells, 3 hours; read-out: IC50
How it was run: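 Following 8-12 h attachment, NCI-H358 cells got serially diluted compound (0.5% DMSO) for 3 hours. Cells were then fixed, permeabilized with cold methanol, and stained for pERK(Thr202/Tyr204) and GAPDH. Ratios were converted to percent of DMSO control, with IC50 obtained by four-parameter regression.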

Sequence of KRas G12C (P01116 1-188 isoform P01116-2 G12C): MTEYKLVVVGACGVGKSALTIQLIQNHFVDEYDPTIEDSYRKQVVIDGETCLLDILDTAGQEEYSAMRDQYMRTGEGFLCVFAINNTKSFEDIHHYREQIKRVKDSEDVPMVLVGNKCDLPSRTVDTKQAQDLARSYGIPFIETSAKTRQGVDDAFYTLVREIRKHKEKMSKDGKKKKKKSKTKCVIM

| SMILES | IC50 |
| --- | --- |
| C=CC(=O)N1CCN(c2nc(O[C@H](C)CN3CCCC3)nc3c2CCN(c2cc(O)cc4ccccc24)C3)CC1 [Example 120, (R)-1-(4-(7-(3-hydroxynaphthalen-1-yl)-2-((1-(pyrrolidin-1-yl)propan-2-yl)oxy)-5,6,7,8-tetrahydropyrido[3,4-d]pyrimidin-4-yl)piperazin-1-yl)prop-2-en-1-one] | 0.0001 to 1 µM |
| C=CC(=O)N1CCN(c2nc(OC[C@@H]3CCCN3C)nc3c2CCN(c2cccc4cc(F)ccc24)C3)CC1CC#N (stereo partly drawn) [Example 259, 2-[4-[7-(6-fluoro-1-naphthyl)-2-[[(2S)-1-methylpyrrolidin-2-yl]methoxy]-6,8-dihydro-5H-pyrido[3,4-d]pyrimidin-4-yl]-1-prop-2-enoyl-piperazin-2-yl]acetonitrile] | 0.0001 to 1 µM |
| C=CC(=O)N1CC2(C1)CN(c1nc(OCCCN(C)C)nc3c1CCN(c1cc(O)cc4ccccc14)C3)C2 [Example 20, 1-(6-(2-(3-(dimethylamino)propoxy)-7-(3-hydroxynaphthalen-1-yl)-5,6,7,8-tetrahydropyrido[3,4-d]pyrimidin-4-yl)-2,6-diazaspiro[3.3]heptan-2-yl)prop-2-en-1-one] | > 1 µM |
| C=CC(=O)N1CCN(c2nc(OCCN(C)C)nc3c2CCN(c2cc(O)cc4ccccc24)C3)C(CCO)C1 (stereo not shown) [Example 172, 1-(4-(2-(2-(dimethylamino)ethoxy)-7-(3-hydroxynaphthalen-1-yl)-5,6,7,8-tetrahydropyrido[3,4-d]pyrimidin-4-yl)-3-(2-hydroxyethyl)piperazin-1-yl)prop-2-en-1-one] | > 1 µM |
| C=CC(=O)N1CC2(C1)CN(c1nc(OCCN(C)C)nc3c1CCN(c1cc(O)cc4ccccc14)C3)C2 [Example 16, 1-(6-(2-(2-(dimethylamino)ethoxy)-7-(3-hydroxynaphthalen-1-yl)-5,6,7,8-tetrahydropyrido[3,4-d]pyrimidin-4-yl)-2,6-diazaspiro[3.3]heptan-2-yl)prop-2-en-1-one] | > 1 µM |
| C=CC(=O)N1CCN(c2nc(OC[C@H]3CCCN3C)nc3c2CCN(c2cc(O)cc4ccccc24)C3)[C@@H](C)C1 [Example 203, 1-((S)-4-(7-(3-hydroxynaphthalen-1-yl)-2-(((R)-1-methylpyrrolidin-2-yl)methoxy)-5,6,7,8-tetrahydropyrido[3,4-d]pyrimidin-4-yl)-3-methylpiperazin-1-yl)prop-2-en-1-one] | 0.0001 to 1 µM |
| C=CC(=O)N1CCN(c2nc(OCCN3CCC[C@H](OC)C3)nc3c2CCN(c2cc(O)cc4ccccc24)C3)CC1 [Example 98, (S)-1-(4-(7-(3-hydroxynaphthalen-1-yl)-2-(2-(3-methoxypiperidin-1-yl)ethoxy)-5,6,7,8-tetrahydropyrido[3,4-d]pyrimidin-4-yl)piperazin-1-yl)prop-2-en-1-one] | > 1 µM |
| C=CC(=O)N1CCN(c2nc(OC[C@@H]3CCCN3C)nc3c2CCN(c2ccncc2C(F)(F)F)C3)CC1CC#N (stereo partly drawn) [Example 239, 2-(1-acryloyl-4-(2-(((S)-1-methylpyrrolidin-2-yl)methoxy)-7-(3-(trifluoromethyl)pyridin-4-yl)-5,6,7,8-tetrahydropyrido[3,4-d]pyrimidin-4-yl)piperazin-2-yl)acetonitrile] | > 1 µM |
| C=CC(=O)N1CCN(c2nc(OCCN(C)C)nc3c2CC(C)N(c2cc(O)cc4ccccc24)C3)CC1 (stereo not shown) [Example 48, 1-(4-(2-(2-(dimethylamino)ethoxy)-7-(3-hydroxynaphthalen-1-yl)-6-methyl-5,6,7,8-tetrahydropyrido[3,4-d]pyrimidin-4-yl)piperazin-1-yl)prop-2-en-1-one trifluoroacetate] | > 1 µM |
| C=CC(=O)N1CCN(c2nc(OC[C@H]3CCN(C)C3)nc3c2CCN(c2cc(O)cc4ccccc24)C3)CC1 [Example 188, (S)-1-(4-(7-(3-hydroxynaphthalen-1-yl)-2-((1-methylpyrrolidin-3-yl)methoxy)-5,6,7,8-tetrahydropyrido[3,4-d]pyrimidin-4-yl)piperazin-1-yl)prop-2-en-1-one] | 0.0001 to 1 µM |

Results, then the molecule that gave them:

| IC50 | SMILES |
| --- | --- |
| 0.0001 to 1 µM | Cc1cccc2cccc(N3CCc4c(nc(OC[C@@H]5CCCN5C)nc4N4CCN(C(=O)/C=C/C(N)=O)[C@@H](CC#N)C4)C3)c12 [Example 500, (E)-4-((S)-2-(cyanomethyl)-4-(7-(8-methylnaphthalen-1-yl)-2-(((S)-1-methylpyrrolidin-2-yl)methoxy)-5,6,7,8-tetrahydropyrido[3,4-d]pyrimidin-4-yl)piperazin-1-yl)-4-oxobut-2-enamide] |
| > 1 µM | C=CC(=O)N1CCN(c2nc(OC[C@@H]3CCCN3C)nc3c2CCN(c2cccc(OC)c2F)C3)CC1CC#N (stereo partly drawn) [Example 307, 2-[4-[7-(2-fluoro-3-methoxy-phenyl)-2-[[(2S)-1-methylpyrrolidin-2-yl]methoxy]-6,8-dihydro-5H-pyrido[3,4-d]pyrimidin-4-yl]-1-prop-2-enoyl-piperazin-2-yl]acetonitrile] |
| 0.0001 to 1 µM | CN1CCC[C@H]1COc1nc2c(c(N3CCN(C(=O)/C=C/CN4CCCC4)[C@@H](CC#N)C3)n1)CCN(c1cccc(Cl)c1C(F)(F)F)C2 [Example 347, 2-[(2S)-4-[7-[3-chloro-2-(trifluoromethyl)phenyl]-2-[[(2S)-1-methylpyrrolidin-2-yl]methoxy]-6,8-dihydro-5H-pyrido[3,4-d]pyrimidin-4-yl]-1-[(E)-4-pyrrolidin-1-ylbut-2-enoyl]piperazin-2-yl]acetonitrile] |
| 0.0001 to 1 µM | Cc1cccc2cccc(N3CCc4c(nc(OC[C@@H]5CCCN5C)nc4N4CCN(C(=O)/C=C/C(=O)N(C)C)[C@@H](CC#N)C4)C3)c12 [Example 499, (E)-4-((S)-2-(cyanomethyl)-4-(7-(8-methylnaphthalen-1-yl)-2-(((S)-1-methylpyrrolidin-2-yl)methoxy)-5,6,7,8-tetrahydropyrido[3,4-d]pyrimidin-4-yl)piperazin-1-yl)-N,N-dimethyl-4-oxobut-2-enamide] |
| 0.0001 to 1 µM | C=C(F)C(=O)N1CCN(c2nc(OC[C@@H]3CCCN3C)nc3c2CCN(c2c(C(F)(F)F)c(C)cc4[nH]ncc24)C3)C[C@@H]1CC#N [Example 527] |
| 0.0001 to 1 µM | C=CC(=O)N1CCN(c2nc(OC[C@@H]3CCCN3C)nc3c2CCN(c2cccc4ccc(C)cc24)C3)C[C@@H]1CC#N [Example 326, 2-((S)-1-acryloyl-4-(7-(7-methylnaphthalen-1-yl)-2-(((S)-1-methylpyrrolidin-2-yl)methoxy)-5,6,7,8-tetrahydropyrido[3,4-d]pyrimidin-4-yl)piperazin-2-yl)acetonitrile] |
| 0.0001 to 1 µM | C=C(F)C(=O)N1CCN(c2nc(OC[C@@H]3C[C@H](C)CN3C)nc3c2CCN(c2cccc4cccc(C)c24)C3)C[C@@H]1CC#N [Example 616, 2-[(2S)-4-[2-[[(2S,4S)-1,4-dimethylpyrrolidin-2-yl]methoxy]-7-(8-methyl-1-naphthyl)-6,8-dihydro-5H-pyrido[3,4-d]pyrimidin-4-yl]-1-(2-fluoroprop-2-enoyl)piperazin-2-yl]acetonitrile] |
| > 1 µM | C=CC(=O)N1CCN(c2nc(OC[C@@H]3C[C@@H](OC)CN3C)nc3c2CCN(c2cc(OC)cc4ccccc24)C3)CC1 [Example 356, 1-[4-[2-[[(2S,4R)-4-methoxy-1-methyl-pyrrolidin-2-yl]methoxy]-7-(3-methoxy-1-naphthyl)-6,8-dihydro-5H-pyrido[3,4-d]pyrimidin-4-yl]piperazin-1-yl]prop-2-en-1-one] |
| > 1 µM | C=CC(=O)N1CCN(c2nc(OC[C@@H]3CCCN3C)nc3c2CCN(c2cccc4cnccc24)C3)CC1CC#N (stereo partly drawn) [Example 292, 2-[4-[7-(5-isoquinolyl)-2-[[(2S)-1-methylpyrrolidin-2-yl]methoxy]-6,8-dihydro-5H-pyrido[3,4-d]pyrimidin-4-yl]-1-prop-2-enoyl-piperazin-2-yl]acetonitrile] |
| 0.0001 to 1 µM | C=CC(=O)N1CCN(c2nc(OC[C@H]3C[C@H](O)CN3C)nc3c2CCN(c2cccc(F)c2C(F)(F)F)C3)CC1CC#N (stereo partly drawn) [Example 415, 2-(1-acryloyl-4-(7-(3-fluoro-2-(trifluoromethyl)phenyl)-2-(((2R,4S)-4-hydroxy-1-methylpyrrolidin-2-yl)methoxy)-5,6,7,8-tetrahydropyrido[3,4-d]pyrimidin-4-yl)piperazin-2-yl)acetonitrile] |
| 0.0001 to 1 µM | CN1CC[C@@H](COc2nc3c(c(N4CCN(C(=O)/C=C/CF)[C@@H](CC#N)C4)n2)CCN(c2cccc4cccc(Cl)c24)C3)C1 [Example 584, 2-[(2S)-4-[7-(8-chloro-1-naphthyl)-2-[[(3R)-1-methylpyrrolidin-3-yl]methoxy]-6,8-dihydro-5H-pyrido[3,4-d]pyrimidin-4-yl]-1-[(E)-4-fluorobut-2-enoyl]piperazin-2-yl]acetonitrile] |
| 0.0001 to 1 µM | C=CC(=O)N1CCN(c2nc(OCCN(C)C)nc3c2CCN(c2ccccc2C(F)(F)F)C3)CC1CC#N (stereo not shown) [Example 296, 2-[4-[2-[2-(dimethylamino)ethoxy]-7-[2-(trifluoromethyl)phenyl]-6,8-dihydro-5H-pyrido[3,4-d]pyrimidin-4-yl]-1-prop-2-enoyl-piperazin-2-yl]acetonitrile] |
| 0.0001 to 1 µM | C=CC(=O)N1CCN(c2nc(OC[C@@H]3CCCN3C)nc3c2CCN(c2ccnc4ccccc24)C3)CC1CC#N (stereo partly drawn) [Example 278, 2-(1-acryloyl-4-(2-(((S)-1-methylpyrrolidin-2-yl)methoxy)-7-(quinolin-4-yl)-5,6,7,8-tetrahydropyrido[3,4-d]pyrimidin-4-yl)piperazin-2-yl)acetonitrile] |
| 0.0001 to 1 µM | C=CC(=O)N1CCN(c2nc(OC[C@@H]3CCCN3C)nc3c2CCN(c2ccccc2C(F)(F)F)C3)C[C@@H]1CC#N [Example 379, 2-((S)-1-acryloyl-4-(2-(((S)-1-methylpyrrolidin-2-yl)methoxy)-7-(2-(trifluoromethyl)phenyl)-5,6,7,8-tetrahydropyrido[3,4-d]pyrimidin-4-yl)piperazin-2-yl)acetonitrile] |
| 0.0001 to 1 µM | C=CC(=O)N1CCN(c2nc(OC[C@H]3CCCN3C)nc3c2CCN(c2ccccc2C(F)(F)F)C3)CC1CC#N (stereo partly drawn) [Example 299, 2-[4-[2-[[(2R)-1-methylpyrrolidin-2-yl]methoxy]-7-[2-(trifluoromethyl)phenyl]-6,8-dihydro-5H-pyrido[3,4-d]pyrimidin-4-yl]-1-prop-2-enoyl-piperazin-2-yl]acetonitrile] |
